Reference: publication PMC11681159, “Bee pollen peptides as potent tyrosinase inhibitors with anti-melanogenesis effects in murine b16f10 melanoma cells and zebrafish embryos” (Scientific Reports, 2024)
Entries after “also recorded” stand apart in the source; their conditions may differ. Ends that are not written are not given here.

Experiments:
mushroom TYR = molecular target: T1, mushroom TYR (Agaricus bisporus, UniProt C7FF04); assay: Kinetic study, Lineweaver-Burk, mono-phenolase; format: biochemical; details: Km rose, Vmax unchanged
T1 construct: purchased Sigma-Aldrich, Merck T3824
T1 sequence (C7FF04 2-392): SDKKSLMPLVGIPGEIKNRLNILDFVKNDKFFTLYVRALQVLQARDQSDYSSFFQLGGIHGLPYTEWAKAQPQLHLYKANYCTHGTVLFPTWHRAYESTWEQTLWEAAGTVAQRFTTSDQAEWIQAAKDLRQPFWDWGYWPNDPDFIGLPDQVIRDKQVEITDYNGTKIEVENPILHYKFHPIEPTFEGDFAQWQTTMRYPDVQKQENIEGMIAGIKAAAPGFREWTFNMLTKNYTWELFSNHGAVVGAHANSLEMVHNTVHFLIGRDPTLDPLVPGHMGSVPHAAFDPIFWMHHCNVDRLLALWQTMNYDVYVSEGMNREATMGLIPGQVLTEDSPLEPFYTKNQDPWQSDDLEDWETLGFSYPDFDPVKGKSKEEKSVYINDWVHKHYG
Protocol: It is necessary to determine the type of TYR inhibitory activity which takes place. This can be achieved through a modified version of an assay described by Feng et al.[39]. The process starts by dissolving the peptide VY-9 in deionized water at various concentrations (0, 0.25, 0.5, and 1 mM). Each VY-9 peptide sample at each concentration (35 µL) was combined 15 µL of mushroom TYR (333 U/mL in 50 mM PBS pH 6.8) prior to 5 min of incubation at 25 °C. Subsequently, various concentrations of substrate were introduced, namely 0–2 mM L-tyrosine in the case of mono-phenolase, and 0–12 mM L-DOPA for di-phenolase. These new mixtures underwent further incubation for 30 min at the same temperature of 25 °C. Upon completion, a spectrophotometer was used to measure the absorbance and determine the inhibitory activity at 490 nm. Lineweaver-Burk plots were then used in calculating Km and Vmax, the kinetic parameters. Km is indicated by the intersection point on the X-axis while Vmax is indicated by the intersection point on the Y-axis in the mode of TYR inhibition under examination. Construction of the plots linked the substrate concentration reciprocal on the X-axis and the absorbance reciprocal (at 490 nm) on the Y-axis, to represent the starting rate for the enzymatic reaction. […]

B16F10 melanoma cells = assay: Cell viability assay (MTT); format: cell-based, mouse; details: 72 h
Protocol: To perform the assay to establish cell viability, a 96-well plate was used for the seeding of the B16F10 cells at 5 × 10^3 cells/well. The cells were then left overnight to allow adherence. The VY-9 peptide at varying concentrations was then used to treat the cells for 72 h. MTT was produced as a 2.5 mg/mL solution in PBS whereupon 10 µL of this MTT solution was introduced to each well before incubating the plate for 4 h at 37 °C inside a humid 5% CO2 incubator. Following this step, the medium was removed the wells, and 200 µL of DMSO was added in its place. Finally, a microplate reader was employed to measure the absorbance for each of the wells at 540 nm, while arbutin (0.2 mM) served as the positive control. Each test was carried out in triplicate, with the findings presented in the form of mean ± standard deviation.

Trp-2 = assay: qRT-PCR, Trp-2 mRNA; format: cell-based, mouse; details: B16F10, 48 h
Protocol: A 6-well plate was used to seed B16F10 cells at 1 × 10^5 cells per well prior to overnight incubation in a 5% CO2 humid atmosphere at 37°C. […] Harvesting was conducted via removal of the supernatant, and the cells were rinsed twice in PBS (phosphate-buffered saline). The PureLink™RNA Mini Kit (Invitrogen™, USA) was then used to extract total RNA in line with the guidance of the manufacturer. RNA concentration was assessed at 260 nm with a NanoDrop 2000 UV-Vis spectrophotometer (Thermo Fisher Scientific, Inc.). Oligo-dT primers and a Precision nanoScript II Reverse Transcription Kit (PrimerDesign, Camberley, UK) were used to perform the reverse transcription of 1 µg of total RNA to cDNA in line with the guidance of the manufacturer. MyGo Pro®Real time PCR apparatus (IT-IS International Ltd., Stokesley, UK) was then used to perform the qRT-PCR assays in which 20 µL of PCR reaction contained 1 µL of cDNA, 7 µL of ultrapure water, 1 µL of each primer […], and 10 µL of 2×qPCRBIO SyGreen Mix (PCR Biosystems Ltd, London, UK). This research made use of the following PCR primers: Gapdh forward 5’-[…]-3’, Gapdh reverse 5’-[…]-3’, Tyr forward 5’-[…]-3’, Tyr reverse 5’-[…]-3’, Trp-1 forward 5’-[…]-3’, Trp-1 reverse 5’-[…]-3’, Trp-2 forward 5’-[…]-3’, Trp-2 reverse 5’-[…]-3’, Mitf forward 5’-[…] − 3’, Mitf reverse 5’-[…]-3’. The initial stage of the process of qRT-PCR amplification was the activation step of thermal treatment where a temperature of 95 °C was used for 2 min, with 45 subsequent cycles comprising 10 s at 95 °C, 20 s at 60 °C, and 30 s at 72 °C, before embarking upon the final melting curve from 60 to 97 °C with 1 min for each step. The relative gene expression level could then be calculated via the cycle threshold (Ct) value, while the role of endogenous control for data normalization was occupied by Gapdh (the housekeeping gene). To calculate relative gene expression, the formula given below can be employed:2 [drawing 2]
where the heightened threshold cycle for the target gene is given as ΔΔCt.

Trp-1 = assay: Western blot, TRP-1 protein; format: cell-based, mouse; details: B16F10, 48 h
Protocol: Western blot analysis was performed to measure TYR (TYR, TRP-1, TRP-2, and MITF) in B16F10 cells in line with the approach discussed by Yoon et al.[65]. whereby the B16F10 cells underwent treatment for 48 h using various peptide amounts ([…]) and also with arbutin (0.2 mM). Following this process, the cells were lysed using NP40 Cell Lysis Buffer with protease inhibitor cocktail supplementation. Next, 12% sodium dodecyl sulfate poly-acrylamide (SDS-PAGE) gel electrophoresis was used to extract equal quantities of protein from each sample, with subsequent transfer to PVD (polyvinylidene fluoride) membranes (Millipore, Bedford, MA, USA). The membrane was blocked overnight with 3% skimmed milk (w/v) in TBST with 0.5% Tween 20 at 4 °C and then washed thrice in TBST. The rabbit polyclonal anti-TYR antibody (dilution 1:1000), anti-TRP-1 antibody (dilution 1:1000), anti-TRP-2 antibody and anti-MITF antibody (dilution 1:1000) obtained from Abcam (USA), were used respectively to detect the TYR, TRP-1, TRP-2, and MITF bands. After thrice washing again in TBST, secondary antibodies (dilution 1:5000) were added to the membranes for 1 h of incubation at room temperature before another triplicate washing in TBST. […] The software facilitated the identification and quantification of protein expression levels.

With “VDGYPAAGY [VY-9, Val-Asp-Gly-Tyr-Pro-Ala- Ala-Gly-Tyr]” the “inhibition type, mono-phenolase” value (mushroom TYR) was “competitive inhibitor”, the “cytotoxicity in B16F10 cells” value (B16F10 melanoma cells; 0 to 1.6 µM (abstract: 0.2–1.6 µM)) was “negligible cytotoxicity; also recorded: no clear signs of cytotoxicity” and the B16F10 cell viability (B16F10 melanoma cells; 0 to 1.6 µM, triplicate) was over 50%. The “TRP-2 mRNA level vs control” value (Trp-2; 0.2 µM) was “decreased slightly compared to the control”, the “Trp-2 mRNA expression vs control” value (Trp-2; 1.6 µM) was “significantly reduced the expression levels of all measured genes” and the “concentration from which Trp-2 mRNA expression decreased” value (Trp-2; vs control) was 0.2 µM. The “Trp-2 mRNA expression vs arbutin” value (Trp-2; VY-9 1.6 µM vs arbutin 0.2 mM) was “significantly decreased compared to arbutin”, the “TRP-1 protein expression vs control” value (Trp-1; 1.6 µM) was “the expression of all proteins decreased compared to the control” and the “concentration from which TRP-1 protein expression gradually decreased” value (Trp-1; western blot) was 0.2 µM.
